In US20210255193A1, “LYSINE REACTIVE PROBES AND USES THEREOF” (The Scripps Research Institute, priority 2017, published 2021):
Values belong to the molecule of their own block, whether it stands above or below them.

Legend:
Assay in all cases: competitive isoTOP-ABPP
Type in all cases: binding
[1] = molecular target: T1, PSME3 Proteasome activator complex subunit 3 (Homo sapiens, UniProt P61289); design: key to isoTOP-ABPP reactivity ratio at lysine P61289_K237: R = MS1 peak area ratio, DMSO (heavy) / compound-treated (light); key to isoTOP-ABPP reactivity ratio at lysine P61289_K12: R = MS1 peak area ratio, DMSO (heavy) / compound-treated (light); capped at 20; details: for isoTOP-ABPP ratio, lysine P61289_K12 / isoTOP-ABPP ratio, lysine P61289_K237: 50 uM_231_sol_in vitro; for isoTOP-ABPP ratio (R) at liganded lysine P61289_K12 / isoTOP-ABPP ratio (R) at liganded lysine P61289_K237 / isoTOP-ABPP reactivity ratio at lysine P61289_K12 / isoTOP-ABPP reactivity ratio at lysine P61289_K237: 50 uM, in vitro; for isoTOP-ABPP ratio (R) at liganded lysine P61289_K12 / isoTOP-ABPP ratio (R) at liganded lysine P61289_K237: sol, 231; for isoTOP-ABPP reactivity ratio at lysine P61289_K12 / isoTOP-ABPP reactivity ratio at lysine P61289_K237: 231 sol
T1 construct: isoTOP-ABPP experiments performed in cell lysates (in vitro); endogenous in cells; host or cells: soluble proteome of human cancer cell lines (MDA-MB-231, Ramos, Jurkat)
Protocol: (§1) In vitro covalent fragment treatment for isoTOP-ABPP. All compounds were made up as solutions in DMSO (100×) and were used at a final concentration of 50 μM for activated esters and 100 μM for guanidinylating agents. For each profiling sample, 0.5 ml of lysate was treated with 5 μl of the 100× compound stock solution or 5 μl of DMSO. Samples were treated with activated esters for
(§2) STP-alkyne labeling and click chemistry. For concentration-dependent reactivity measurements by isoTOP-ABPP, 0.5 ml proteome aliquots were treated at ambient temperature with 1 mM STP-alkyne 1 (5 μl of 100 mM stock in DMSO) and 0.1 mM STP alkyne 1 (5 μl of 10 mM stock in DMSO), respectively. For competitive isoTOP-ABPP, after in vitro fragment treatment (detailed above), the samples were labeled for 1 h at ambient temperature with 0.1 mM STP-alkyne 1 (5 μl of 10 mM stock in DMSO). Samples were conjugated by copper-mediated azide-alkyne cycloaddition (CuAAC) to either the light (1 mM STP-alkyne or fragment treated) or heavy (0.1 mM STP-alkyne or DMSO treated) TEV tags (10 μl of 5 mM stocks in DMSO, final concentration=100 μM) using tris(2-carboxyethyl)phosphine hydrochloride
(§3) R value calculation and processing. The ratios of light and heavy MS1 peaks for each unique peptide were quantified with a CIMAGE software using default parameters (3 MS1 acquisitions per peak and signal to noise threshold set to 2.5). For reactivity measurements by isoTOP-ABPP, the R value was calculated from the ratio of MS1 peak areas, comparing the 1 mM STP alkyne sample (light TEV tag) with the 0.1 mM STP alkyne sample (heavy TEV tag). For competitive isoTOP-ABPP, the R value was calculated from the ratio of MS1 peak areas, comparing the DMSO treated sample (heavy TEV tag) with the compound treated sample (light TEV tag). […] Ratios for unique peptide entries are calculated for each experiment; overlapping peptides with the same modified lysine (for example, different charge states, MudPIT chromatographic steps or tryptic termini) are grouped together and the median ratio is reported as the final ratio (R). The peptide ratios reported by CIMAGE were further filtered to ensure the removal or correction of low-quality ratios in each individual data set. The quality filters applied were the following: removal of half tryptic peptides; for ratios with high standard deviations from the median (90% of the median or above) the lowest ratio was taken instead of the median; removal of peptides with R=20 and only a single MS2 event triggered during the elution of the parent ion; manual annotation of all the peptides with ratios of 20, removing any peptides with low quality elution profiles that remained after the previous curation steps (only done for competitive isoTOP-ABPP).
(§4) Cross-data processing for fragment screening. For compound treated samples, biological replicates of the same condition were averaged, if the standard deviation was below 60% of the mean; otherwise, for lysines with at least one R value <4 for a particular compound, the lowest value of the ratio set was taken. For lysines, where all R values for a particular compound were ≥4, the average was reported. For peptides containing several possible modified lysines, the lysine with the highest number of quantification events was used for analysis and the remaining, redundant peptides were reported as alternative modification sites. Peptides included in the aggregate dataset (those used for further bioinformatics and statistical analyses) were required to have been quantified in 2 experiments for competitive isoTOP-ABPP. Lysines were categorized as liganded, if they had at least one ratio R≥4 (hit fragments). For liganded lysines with R=20 for all liganding events, lysines were required to have been quantified with R=20 in two separate experiments and were further required to have been quantified with R<20 in one additional experiment.

[2] = molecular target: T2, ECH1 Delta(3,5)-Delta(2,4)-dienoyl-CoA isomerase, mitochondrial (Homo sapiens, UniProt Q13011); design: key to isoTOP-ABPP reactivity ratio at lysine Q13011_K112: R = MS1 peak area ratio, DMSO (heavy) / compound-treated (light); capped at 20; details: for isoTOP-ABPP ratio, lysine Q13011_K112: 50 uM_231_sol_in vitro; for isoTOP-ABPP ratio (R) at liganded lysine Q13011_K112 / isoTOP-ABPP reactivity ratio at lysine Q13011_K112: 50 uM, in vitro; for isoTOP-ABPP ratio (R) at liganded lysine Q13011_K112: sol, 231; for isoTOP-ABPP reactivity ratio at lysine Q13011_K112: 231 sol
T2 construct: isoTOP-ABPP experiments performed in cell lysates (in vitro); endogenous in cells; host or cells: soluble proteome of human cancer cell lines (MDA-MB-231, Ramos, Jurkat)
T2 sequence (Q13011 34-328): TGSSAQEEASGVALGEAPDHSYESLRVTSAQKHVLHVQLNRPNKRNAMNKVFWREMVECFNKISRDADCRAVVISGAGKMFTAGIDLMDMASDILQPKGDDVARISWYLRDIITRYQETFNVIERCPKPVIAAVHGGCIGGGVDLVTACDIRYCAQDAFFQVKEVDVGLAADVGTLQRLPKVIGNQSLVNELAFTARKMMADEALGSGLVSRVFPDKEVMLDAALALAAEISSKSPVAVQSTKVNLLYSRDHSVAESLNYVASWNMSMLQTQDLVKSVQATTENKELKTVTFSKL
Protocol: as §1, §2, §3, §4

[3] = molecular target: T3, TPD52L2 Tumor protein D54 (Homo sapiens, UniProt O43399); design: key to isoTOP-ABPP reactivity ratio at lysine O43399_K90: R = MS1 peak area ratio, DMSO (heavy) / compound-treated (light); details: for isoTOP-ABPP ratio, lysine O43399_K90: 50 uM_231_sol_in vitro; for isoTOP-ABPP ratio (R) at liganded lysine O43399_K90 / isoTOP-ABPP reactivity ratio at lysine O43399_K90: 50 uM, in vitro; for isoTOP-ABPP ratio (R) at liganded lysine O43399_K90: sol, 231; for isoTOP-ABPP reactivity ratio at lysine O43399_K90: 231 sol
T3 construct: isoTOP-ABPP experiments performed in cell lysates (in vitro); endogenous in cells; host or cells: MDA-MB-231 soluble lysate
Protocol: as §1, §2, §3, §4

[4] = molecular target: T4, SRP54 Signal recognition particle 54 kDa protein (Homo sapiens, UniProt P61011); design: key to isoTOP-ABPP reactivity ratio at lysine P61011_K81: R = MS1 peak area ratio, DMSO (heavy) / compound-treated (light); capped at 20; details: for isoTOP-ABPP ratio, lysine P61011_K81: 50 uM_231_sol_in vitro; for isoTOP-ABPP ratio (R) at liganded lysine P61011_K81 / isoTOP-ABPP reactivity ratio at lysine P61011_K81: 50 uM, in vitro; for isoTOP-ABPP ratio (R) at liganded lysine P61011_K81: sol, 231; for isoTOP-ABPP reactivity ratio at lysine P61011_K81: 231 sol
T4 construct: isoTOP-ABPP experiments performed in cell lysates (in vitro); endogenous in cells; host or cells: soluble proteome of human cancer cell lines (MDA-MB-231, Ramos, Jurkat)
Protocol: as §1, §2, §3, §4

T3 sequence (O43399 whole entry): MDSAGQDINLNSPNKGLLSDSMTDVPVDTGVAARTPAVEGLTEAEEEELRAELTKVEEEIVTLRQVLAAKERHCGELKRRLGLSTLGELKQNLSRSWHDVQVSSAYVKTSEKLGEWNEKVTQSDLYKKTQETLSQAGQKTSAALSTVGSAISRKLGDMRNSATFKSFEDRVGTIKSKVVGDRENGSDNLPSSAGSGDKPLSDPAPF
T4 sequence (P61011 whole entry): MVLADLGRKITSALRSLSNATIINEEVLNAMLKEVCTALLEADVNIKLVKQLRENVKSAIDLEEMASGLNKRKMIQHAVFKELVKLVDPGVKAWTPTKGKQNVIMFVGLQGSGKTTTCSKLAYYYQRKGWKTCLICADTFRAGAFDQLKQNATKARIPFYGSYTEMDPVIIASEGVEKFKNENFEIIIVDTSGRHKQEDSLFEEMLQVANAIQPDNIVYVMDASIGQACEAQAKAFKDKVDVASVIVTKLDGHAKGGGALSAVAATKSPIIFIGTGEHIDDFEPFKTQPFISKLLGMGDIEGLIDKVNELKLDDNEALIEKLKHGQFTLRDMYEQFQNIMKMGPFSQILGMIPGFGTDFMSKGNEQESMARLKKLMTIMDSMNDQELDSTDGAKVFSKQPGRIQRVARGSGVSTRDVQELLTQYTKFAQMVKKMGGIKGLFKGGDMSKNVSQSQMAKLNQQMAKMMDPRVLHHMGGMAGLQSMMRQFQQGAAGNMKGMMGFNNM
T1 sequence (P61289 whole entry, one chain of several): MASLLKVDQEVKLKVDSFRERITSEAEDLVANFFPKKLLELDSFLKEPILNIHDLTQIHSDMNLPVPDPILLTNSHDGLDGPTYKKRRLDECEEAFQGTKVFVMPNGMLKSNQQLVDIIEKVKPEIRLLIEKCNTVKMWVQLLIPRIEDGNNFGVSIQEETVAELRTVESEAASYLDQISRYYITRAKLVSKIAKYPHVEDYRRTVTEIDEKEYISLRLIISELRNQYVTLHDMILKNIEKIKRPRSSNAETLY

SMILES: O=C(CCc1ccc2c(c1)OCO2)Oc1ccc([N+](=O)[O-])cc1[N+](=O)[O-] [fragment 45, 2,4-Dinitrophenyl 3-(benzo[d][1,3]dioxol-5-yl)propanoate]
isoTOP-ABPP ratio, lysine P61289_K12 [1]: 2.0
isoTOP-ABPP ratio, lysine P61289_K237 [1]: 1.6
isoTOP-ABPP ratio, lysine Q13011_K112 [2]: 1.0
isoTOP-ABPP ratio, lysine O43399_K90 [3]: 1.5
isoTOP-ABPP ratio, lysine P61011_K81 [4]: 1.0

SMILES: O=C(ON1C(=O)CCC1=O)c1cc(C(F)(F)F)cc(C(F)(F)F)c1 [fragment 46, 3,5-Bis(trifluoromethyl)benzoic acid NHS ester]
isoTOP-ABPP ratio, lysine P61289_K12 [1]: 0.7
isoTOP-ABPP ratio, lysine P61289_K237 [1]: 0.9
isoTOP-ABPP ratio, lysine Q13011_K112 [2]: 0.8
isoTOP-ABPP ratio, lysine O43399_K90 [3]: 1.4
isoTOP-ABPP ratio, lysine P61011_K81 [4]: 0.9

SMILES: O=C(Oc1ccc([N+](=O)[O-])cc1[N+](=O)[O-])c1ccc(Oc2ccccc2)cc1 [fragment 39, 2,4-Dinitrophenyl 4-phenoxybenzoate]
isoTOP-ABPP ratio (R) at liganded lysine P61289_K12 [1]: 0.9
isoTOP-ABPP ratio (R) at liganded lysine P61289_K237 [1]: 0.9
isoTOP-ABPP ratio (R) at liganded lysine Q13011_K112 [2]: 1.1
isoTOP-ABPP ratio (R) at liganded lysine O43399_K90 [3]: 1.3
isoTOP-ABPP ratio (R) at liganded lysine P61011_K81 [4]: 0.9

isoTOP-ABPP reactivity ratio at lysine P61289_K12 [1]: 0.9
isoTOP-ABPP reactivity ratio at lysine P61289_K237 [1]: 0.5
isoTOP-ABPP reactivity ratio at lysine Q13011_K112 [2]: 2.7
isoTOP-ABPP reactivity ratio at lysine O43399_K90 [3]: 1.5
isoTOP-ABPP reactivity ratio at lysine P61011_K81 [4]: 0.8
SMILES: O=C(Oc1c(F)c(F)c(F)c(F)c1F)c1ccc2ccccc2n1 [fragment 25, Pentafluorophenyl quinoline-2-carboxylate]

SMILES: O=C(Oc1ccc([N+](=O)[O-])cc1[N+](=O)[O-])C(c1ccccc1)c1ccccc1 [fragment 30, 2,4-Dinitrophenyl 2,2-diphenylacetate]
isoTOP-ABPP reactivity ratio at lysine P61289_K237 [1]: 4.3
isoTOP-ABPP reactivity ratio at lysine Q13011_K112 [2]: 0.9
isoTOP-ABPP reactivity ratio at lysine O43399_K90 [3]: 5.5
isoTOP-ABPP reactivity ratio at lysine P61011_K81 [4]: 20.0

SMILES: O=C(Oc1ccc([N+](=O)[O-])cc1[N+](=O)[O-])c1cc(C(F)(F)F)cc(C(F)(F)F)c1 [fragment 31, 2,4-Dinitrophenyl 3,5-bis(trifluoromethyl)benzoate]
isoTOP-ABPP reactivity ratio at lysine P61289_K12 [1]: 1.1
isoTOP-ABPP reactivity ratio at lysine P61289_K237 [1]: 1.1
isoTOP-ABPP reactivity ratio at lysine Q13011_K112 [2]: 1.2
isoTOP-ABPP reactivity ratio at lysine O43399_K90 [3]: 3.3
isoTOP-ABPP reactivity ratio at lysine P61011_K81 [4]: 0.9

SMILES: O=C(Oc1ccc([N+](=O)[O-])cc1[N+](=O)[O-])C(c1ccccc1)(c1ccccc1)c1ccccc1 [fragment 42, 2,4-Dinitrophenyl 2,2,2-triphenylacetate]
isoTOP-ABPP ratio (R) at liganded lysine P61289_K12 [1]: 0.9
isoTOP-ABPP ratio (R) at liganded lysine P61289_K237 [1]: 0.9
isoTOP-ABPP ratio (R) at liganded lysine Q13011_K112 [2]: 1.0
isoTOP-ABPP ratio (R) at liganded lysine O43399_K90 [3]: 1.0
isoTOP-ABPP ratio (R) at liganded lysine P61011_K81 [4]: 0.9
